Assay results: US7118895B2, “Process for producing aglycon by using diglycosidase and flavor-improved food containing the aglycon and converting agent to be used in the process” (Amano Enzyme Inc., priority 2000, dated 2006)

Test system: Crude diglycosidase
Assay: Examination of temperature in the conversion into isoflavone aglycons by diglycosidase using soybean materials
Format: biochemical, Penicillium multicolor IAM7153
Design: Decomposition efficiency of glycitin family in roasted soy flour / Decomposition efficiency of daidzin family in roasted soy flour / Decomposition efficiency of genistin family in soymilk / Decomposition efficiency of daidzin family in soymilk / Decomposition efficiency of glycitin family in defatted soybean / Decomposition efficiency of daidzin family in defatted soybean: concentration or dose not given beside the values
Settings: for maximum isolation of aglycons: reaction at 55° C. for 6 hours
Procedure: Into 400 μL of 20 mM acetate buffer of pH 4.0 was suspended 50 mg of each of various soybean materials (roasted soy flour (manufactured by Fuji Shokuryo K.K.), soymilk (manufactured by Gitoh Shokuhin K.K.), defatted soybean (manufactured by Fuji Seiyu K.K.), concentrated soybean protein (manufactured by Fuji Seiyu K.K.)), whereby a substrate solution was prepared. Crude diglycosidase was diluted with 20 mM acetate buffer of pH 4.0 to be the glycosidase activity of 1.88 AU/mL. Fifty μL of the enzyme solution was mixed with the substrate solution and the whole was reacted at 80, 65, 55, 45, 37, or 30° C. at the total volume of 500 μL. To the reaction mixture was added 700 μL of ethanol after 0, 1, 3, and 6 hours of the reaction. After stirring and ultrasonication, the mixture was subjected to centrifugal separation at 15,000 rpm and 4° C. for 10 minutes. The supernatant was filtered through a filter and the existence of isoflavone glycosides and aglycon isoflavones contained in the reaction mixture was detected by HLPC.

[1] = 30 °C, heat treatment of enzyme: no, 0 h
[2] = 30 °C, heat treatment of enzyme: no, 1 h
[3] = 30 °C, heat treatment of enzyme: no, 3 h
[4] = 30 °C, heat treatment of enzyme: no, 6 h
[5] = 30 °C, heat treatment of enzyme: yes, 6 h
[6] = 45 °C, heat treatment of enzyme: no, 0 h
[7] = 45 °C, heat treatment of enzyme: no, 1 h
[8] = 45 °C, heat treatment of enzyme: no, 3 h
[9] = 45 °C, heat treatment of enzyme: no, 6 h
[10] = 45 °C, heat treatment of enzyme: yes, 6 h
[11] = 55 °C, heat treatment of enzyme: no, 0 h
[12] = 55 °C, heat treatment of enzyme: no, 1 h
[13] = 55 °C, heat treatment of enzyme: no, 3 h
[14] = 55 °C, heat treatment of enzyme: no, 6 h
[15] = 55 °C, heat treatment of enzyme: yes, 6 h
[16] = 65 °C, heat treatment of enzyme: no, 0 h
[17] = 65 °C, heat treatment of enzyme: no, 1 h
[18] = 65 °C, heat treatment of enzyme: no, 3 h
[19] = 65 °C, heat treatment of enzyme: no, 6 h
[20] = 65 °C, heat treatment of enzyme: yes, 6 h
[21] = 80 °C, heat treatment of enzyme: no, 0 h
[22] = 80 °C, heat treatment of enzyme: no, 1 h
[23] = 80 °C, heat treatment of enzyme: no, 3 h
[24] = 80 °C, heat treatment of enzyme: no, 6 h
[25] = 80 °C, heat treatment of enzyme: yes, 6 h

## COc1cc2c(=O)c(-c3ccc(O)cc3)coc2cc1O [glycitein]
30° C., heat treatment of enzyme no, reaction time 0 h
  Decomposition efficiency of glycitin family in defatted soybean: 38.7%
30° C., heat treatment of enzyme no, reaction time 1 h
  Decomposition efficiency of glycitin family in defatted soybean: 51.7%
30° C., heat treatment of enzyme no, reaction time 3 h
  Decomposition efficiency of glycitin family in defatted soybean: 55.4%
30° C., heat treatment of enzyme no, reaction time 6 h
  Decomposition efficiency of glycitin family in defatted soybean: 54.4%
30° C., heat treatment of enzyme yes, reaction time 6 h
  Decomposition efficiency of glycitin family in defatted soybean: 54.9%
[1]
  Decomposition efficiency of glycitin family in concentrated soybean protein: 11.4%
  Decomposition efficiency of glycitin family in roasted soy flour: 10.4%
  Decomposition efficiency of glycitin family in soymilk: 8.1%
[2]
  Decomposition efficiency of glycitin family in concentrated soybean protein: 17.5%
  Decomposition efficiency of glycitin family in roasted soy flour: 31.5%
  Decomposition efficiency of glycitin family in soymilk: 49.0%
[3]
  Decomposition efficiency of glycitin family in concentrated soybean protein: 26.9%
  Decomposition efficiency of glycitin family in roasted soy flour: 66.8%
  Decomposition efficiency of glycitin family in soymilk: 60.4%
[4]
  Decomposition efficiency of glycitin family in concentrated soybean protein: 40.3%
  Decomposition efficiency of glycitin family in roasted soy flour: 80.9%
  Decomposition efficiency of glycitin family in soymilk: 71.6%
[5]
  Decomposition efficiency of glycitin family in concentrated soybean protein: 11.3%
  Decomposition efficiency of glycitin family in roasted soy flour: 11.1%
  Decomposition efficiency of glycitin family in soymilk: 7.9%
45° C., heat treatment of enzyme no, reaction time 0 h
  Decomposition efficiency of glycitin family in defatted soybean: 34.8%
45° C., heat treatment of enzyme no, reaction time 1 h
  Decomposition efficiency of glycitin family in defatted soybean: 55.7%
45° C., heat treatment of enzyme no, reaction time 3 h
  Decomposition efficiency of glycitin family in defatted soybean: 55.2%
45° C., heat treatment of enzyme no, reaction time 6 h
  Decomposition efficiency of glycitin family in defatted soybean: 59.0%
45° C., heat treatment of enzyme yes, reaction time 6 h
  Decomposition efficiency of glycitin family in defatted soybean: 55.8%
[6]
  Decomposition efficiency of glycitin family in concentrated soybean protein: 11.4%
  Decomposition efficiency of glycitin family in roasted soy flour: 10.4%
  Decomposition efficiency of glycitin family in soymilk: 8.2%
[7]
  Decomposition efficiency of glycitin family in concentrated soybean protein: 35.2%
  Decomposition efficiency of glycitin family in roasted soy flour: 60.2%
  Decomposition efficiency of glycitin family in soymilk: 53.8%
[8]
  Decomposition efficiency of glycitin family in concentrated soybean protein: 49.6%
  Decomposition efficiency of glycitin family in roasted soy flour: 67.4%
  Decomposition efficiency of glycitin family in soymilk: 70.1%
[9]
  Decomposition efficiency of glycitin family in concentrated soybean protein: 64.9%
  Decomposition efficiency of glycitin family in roasted soy flour: 85.0%
  Decomposition efficiency of glycitin family in soymilk: 84.7%
[10]
  Decomposition efficiency of glycitin family in concentrated soybean protein: 11.3%
  Decomposition efficiency of glycitin family in roasted soy flour: 13.4%
  Decomposition efficiency of glycitin family in soymilk: 7.4%
55° C., heat treatment of enzyme no, reaction time 0 h
  Decomposition efficiency of glycitin family in defatted soybean: 38.7%
55° C., heat treatment of enzyme no, reaction time 1 h
  Decomposition efficiency of glycitin family in defatted soybean: 55.2%
55° C., heat treatment of enzyme no, reaction time 3 h
  Decomposition efficiency of glycitin family in defatted soybean: 57.4%
55° C., heat treatment of enzyme no, reaction time 6 h
  Decomposition efficiency of glycitin family in defatted soybean: 57.3%
55° C., heat treatment of enzyme yes, reaction time 6 h
  Decomposition efficiency of glycitin family in defatted soybean: 54.5%
[11]
  Decomposition efficiency of glycitin family in concentrated soybean protein: 11.2%
  Decomposition efficiency of glycitin family in roasted soy flour: 10.4%
  Decomposition efficiency of glycitin family in soymilk: 7.6%
[12]
  Decomposition efficiency of glycitin family in concentrated soybean protein: 51.4%
  Decomposition efficiency of glycitin family in roasted soy flour: 69.9%
  Decomposition efficiency of glycitin family in soymilk: 60.9%
[13]
  Decomposition efficiency of glycitin family in concentrated soybean protein: 69.7%
  Decomposition efficiency of glycitin family in roasted soy flour: 87.9%
  Decomposition efficiency of glycitin family in soymilk: 72.3%
[14]
  Decomposition efficiency of glycitin family in concentrated soybean protein: 72.7%
  Decomposition efficiency of glycitin family in roasted soy flour: 94.0%
  Decomposition efficiency of glycitin family in soymilk: 83.5%
[15]
  Decomposition efficiency of glycitin family in concentrated soybean protein: 11.3%
  Decomposition efficiency of glycitin family in roasted soy flour: 11.0%
  Decomposition efficiency of glycitin family in soymilk: 6.7%
65° C., heat treatment of enzyme no, reaction time 0 h
  Decomposition efficiency of glycitin family in defatted soybean: 34.8%
65° C., heat treatment of enzyme no, reaction time 1 h
  Decomposition efficiency of glycitin family in defatted soybean: 54.7%
65° C., heat treatment of enzyme no, reaction time 3 h
  Decomposition efficiency of glycitin family in defatted soybean: 57.9%
65° C., heat treatment of enzyme no, reaction time 6 h
  Decomposition efficiency of glycitin family in defatted soybean: 60.0%
65° C., heat treatment of enzyme yes, reaction time 6 h
  Decomposition efficiency of glycitin family in defatted soybean: 51.2%
[16]
  Decomposition efficiency of glycitin family in concentrated soybean protein: 11.4%
  Decomposition efficiency of glycitin family in roasted soy flour: 10.4%
  Decomposition efficiency of glycitin family in soymilk: 8.1%
[17]
  Decomposition efficiency of glycitin family in concentrated soybean protein: 58.6%
  Decomposition efficiency of glycitin family in roasted soy flour: 65.5%
  Decomposition efficiency of glycitin family in soymilk: 57.6%
[18]
  Decomposition efficiency of glycitin family in concentrated soybean protein: 64.0%
  Decomposition efficiency of glycitin family in roasted soy flour: 69.0%
  Decomposition efficiency of glycitin family in soymilk: 65.7%
[19]
  Decomposition efficiency of glycitin family in concentrated soybean protein: 63.8%
  Decomposition efficiency of glycitin family in roasted soy flour: 71.0%
  Decomposition efficiency of glycitin family in soymilk: 74.5%
[20]
  Decomposition efficiency of glycitin family in concentrated soybean protein: 11.4%
  Decomposition efficiency of glycitin family in roasted soy flour: 10.4%
  Decomposition efficiency of glycitin family in soymilk: 7.2%
80° C., heat treatment of enzyme no, reaction time 0 h
  Decomposition efficiency of glycitin family in defatted soybean: 34.8%
80° C., heat treatment of enzyme no, reaction time 1 h
  Decomposition efficiency of glycitin family in defatted soybean: 53.9%
80° C., heat treatment of enzyme no, reaction time 3 h
  Decomposition efficiency of glycitin family in defatted soybean: 55.0%
80° C., heat treatment of enzyme no, reaction time 6 h
  Decomposition efficiency of glycitin family in defatted soybean: 59.7%
80° C., heat treatment of enzyme yes, reaction time 6 h
  Decomposition efficiency of glycitin family in defatted soybean: 51.9%
[21]
  Decomposition efficiency of glycitin family in concentrated soybean protein: 11.4%
  Decomposition efficiency of glycitin family in roasted soy flour: 10.4%
  Decomposition efficiency of glycitin family in soymilk: 8.2%
[22]
  Decomposition efficiency of glycitin family in concentrated soybean protein: 23.8%
  Decomposition efficiency of glycitin family in roasted soy flour: 40.8%
  Decomposition efficiency of glycitin family in soymilk: 45.7%
[23]
  Decomposition efficiency of glycitin family in concentrated soybean protein: 23.4%
  Decomposition efficiency of glycitin family in roasted soy flour: 41.1%
  Decomposition efficiency of glycitin family in soymilk: 44.9%
[24]
  Decomposition efficiency of glycitin family in concentrated soybean protein: 22.8%
  Decomposition efficiency of glycitin family in roasted soy flour: 30.7%
  Decomposition efficiency of glycitin family in soymilk: 34.4%
[25]
  Decomposition efficiency of glycitin family in concentrated soybean protein: 11.4%
  Decomposition efficiency of glycitin family in roasted soy flour: 9.9%
  Decomposition efficiency of glycitin family in soymilk: 9.3%
Concentrated soybean protein
  maximum isolation of aglycons: about 73%
Defatted soybean
  maximum isolation of aglycons: about 57%
Soy flour
  maximum isolation of aglycons: about 94%
soymilk
  maximum isolation of aglycons: about 84%
